# According to patent publication US20220119354A1, “DIAMINO-SUBSTITUTED PYRIDINES AND PYRIMIDINES AS HERBICIDES” (FMC Corporation, priority 2019, published 2022):
# Legend:
# Format in all cases: in vivo
# [1] = tested on: barnyardgrass (Echinochloa crus-galli); assay: Test A preemergence, barnyardgrass; details: 0 to 100 scale; for Barnyardgrass plant response rating: 0 is no effect, 100 is complete control
# Description: (§1) Seeds of plant species selected from barnyardgrass (Echinochloa crus-galli), kochia (Kochia scoparia), ragweed (common ragweed, Ambrosia elatior), ryegrass, Italian (Lolium multiflorum), foxtail, giant (Setaria faberii), foxtail, green (Setaria viridis), and pigweed (Amaranthus retroflexus) were planted into a blend of loam soil and sand and treated preemergence with a directed soil spray using test chemicals formulated in a non-phytotoxic solvent mixture which included a surfactant.
# (§2) At the same time, plants selected from these weed species and also wheat (Triticum aestivum), corn (Zea mays), blackgrass (Alopecurus myosuroides), and galium (catchweed bedstraw, Galium aparine) were planted in pots containing the same blend of loam soil and sand and treated with postemergence applications of test chemicals formulated in the same manner. Plants ranged in height from 2 to 10 cm and were in the one- to two-leaf stage for the postemergence treatment. Treated plants and untreated controls were maintained in a greenhouse for approximately 10 d, after which time all treated plants were compared to untreated controls and visually evaluated for injury. Plant response ratings, summarized in Table A, are based on a 0 to 100 scale where 0 is no effect and 100 is complete control. A dash (-) response means no test result.
# kochia (Kochia scoparia) [2] = assay: Test A preemergence, kochia; details: 0 to 100 scale; for Kochia plant response rating: 0 is no effect, 100 is complete control
# Description: as §1, §2
# [3] = tested on: ragweed (common ragweed, Ambrosia elatior); assay: Test A preemergence, ragweed; details: 0 to 100 scale, 0 is no effect, 100 is complete control
# Description: as §1, §2
# [4] = tested on: ryegrass, Italian (Lolium multiflorum); assay: Test A preemergence, Italian ryegrass; details: 0 to 100 scale; for Ryegrass, Italian plant response rating: 0 is no effect, 100 is complete control
# Description: as §1, §2
# [5] = tested on: foxtail, giant (Setaria faberii); assay: Test A preemergence, giant foxtail; details: 0 to 100 scale; for Foxtail, Giant plant response rating: 0 is no effect, 100 is complete control
# Description: as §1, §2
# [6] = tested on: pigweed (Amaranthus retroflexus); assay: Test A preemergence, pigweed; details: 0 to 100 scale; for Pigweed plant response rating: 0 is no effect, 100 is complete control
# Description: as §1, §2
# kochia (Kochia scoparia) [7] = assay: Test A postemergence, kochia; details: 0 to 100 scale
# Description: as §1, §2
# [8] = tested on: ragweed (common ragweed, Ambrosia elatior); assay: Test A postemergence, ragweed; details: 0 to 100 scale
# Description: as §1, §2
# [9] = tested on: ryegrass, Italian (Lolium multiflorum); assay: Test A postemergence, Italian ryegrass; details: 0 to 100 scale
# Description: as §1, §2
# [10] = tested on: foxtail, giant (Setaria faberii); assay: Test A postemergence, giant foxtail; details: 0 to 100 scale
# Description: as §1, §2
# [11] = tested on: pigweed (Amaranthus retroflexus); assay: Test A postemergence, pigweed; details: 0 to 100 scale
# Description: as §1, §2
# [12] = tested on: wheat (Triticum aestivum); assay: Test A postemergence, wheat; details: 0 to 100 scale
# Description: as §1, §2
# corn (Zea mays) = assay: Test A postemergence, corn; details: 0 to 100 scale
# Description: as §1, §2
# [13] = tested on: blackgrass (Alopecurus myosuroides); assay: Test A postemergence, blackgrass; details: 0 to 100 scale
# Description: as §1, §2
# [14] = tested on: galium (catchweed bedstraw, Galium aparine); assay: Test A postemergence, galium; details: 0 to 100 scale
# Description: as §1, §2
# rice (Oryza sativa) = assay: Test B flooded paddy test, rice; details: Flood, 250 g ai/ha, applied to paddy water, 2-leaf stage, visual evaluation after 13 to 15 d
# Experimental: (§3) Plant species in the flooded paddy test selected from rice (Oryza sativa), sedge, umbrella (small-flower umbrella sedge, Cyperus difformis), ducksalad (Heteranthera limosa), and barnyardgrass (Echinochloa crus-galli) were grown to the 2-leaf stage for testing. At the time of treatment, test pots were flooded to 3 cm above the soil surface, treated by application of test compounds directly to the paddy water, and then maintained at that water depth for the duration of the test. Treated plants and controls were maintained in a greenhouse for 13 to 15 d, after which time all species were compared to controls and visually evaluated. Plant response ratings, summarized in Table B, are based on a scale of 0 to 100 where 0 is no effect and 100 is complete control. A dash (-) response means no test result.
# [15] = tested on: sedge, umbrella (small-flower umbrella sedge, Cyperus difformis); assay: Test B flooded paddy test, umbrella sedge; details: Flood, 250 g ai/ha, applied to paddy water, 2-leaf stage, visual evaluation after 13 to 15 d
# Experimental: as §3
# [16] = tested on: ducksalad (Heteranthera limosa); assay: Test B flooded paddy test, ducksalad; details: Flood, 250 g ai/ha, applied to paddy water, 2-leaf stage, visual evaluation after 13 to 15 d
# Experimental: as §3
# [17] = tested on: barnyardgrass (Echinochloa crus-galli); assay: Test B flooded paddy test, barnyardgrass; details: Flood, 250 g ai/ha, applied to paddy water, 2-leaf stage, visual evaluation after 13 to 15 d
# Experimental: as §3
# [18] = tested on: barnyardgrass (Echinochloa crus-galli); assay: Test A postemergence, barnyardgrass; details: 0 to 100 scale
# Description: as §1, §2
# [19] = 125 g ai/ha, 0 no effect, 100 complete control
# [20] = 500 g ai/ha, 0 no effect, 100 complete control
structure (smiles),measurement,setting,value
Cc1ccc2c([C@H](Nc3ncc(C(F)(F)F)c(N)n3)C3CC3)coc2c1 [Compound 90],Barnyardgrass plant response rating,[1]; 125 g ai/ha,0
same,Barnyardgrass plant response rating,[1]; 500 g ai/ha,80
same,Kochia plant response rating,kochia (Kochia scoparia) [2]; 125 g ai/ha,0
same,Kochia plant response rating,kochia (Kochia scoparia) [2]; 500 g ai/ha,90
same,Ragweed plant response rating,[3]; 125 g ai/ha,50
same,Ragweed plant response rating,[3]; 500 g ai/ha,100
same,"Ryegrass, Italian plant response rating",[4]; 125 g ai/ha,30
same,"Ryegrass, Italian plant response rating",[4]; 500 g ai/ha,50
same,"Foxtail, Giant plant response rating",[5]; 125 g ai/ha,70
same,"Foxtail, Giant plant response rating",[5]; 500 g ai/ha,100
same,Pigweed plant response rating,[6]; 125 g ai/ha,70
same,Pigweed plant response rating,[6]; 500 g ai/ha,100
same,"Plant response rating, Kochia",kochia (Kochia scoparia) [7]; [19],20
same,"Plant response rating, Kochia",kochia (Kochia scoparia) [7]; [20],90
same,"Plant response rating, Ragweed",[8]; [19],30
same,"Plant response rating, Ragweed",[8]; [20],70
same,"Plant response rating, Ryegrass, Italian",[9]; [19],30
same,"Plant response rating, Ryegrass, Italian",[9]; [20],40
same,"Plant response rating, Foxtail, Giant",[10]; [19],0
same,"Plant response rating, Foxtail, Giant",[10]; [20],50
same,"Plant response rating, Pigweed",[11]; [19],60
same,"Plant response rating, Pigweed",[11]; [20],100
same,"Plant response rating, Wheat",[12]; [19],0
same,"Plant response rating, Wheat",[12]; [20],30
same,"Plant response rating, Corn",corn (Zea mays); [19],0
same,"Plant response rating, Corn",corn (Zea mays); [20],0
same,"Plant response rating, Blackgrass",[13]; [19],0
same,"Plant response rating, Blackgrass",[13]; [20],60
same,"Plant response rating, Galium",[14]; [19],40
same,"Plant response rating, Galium",[14]; [20],70
same,"Plant response rating, Rice (0 to 100 scale, 0 is no effect, 100 is complete control)",rice (Oryza sativa),0
same,"Plant response rating, Sedge, Umbrella (0 to 100 scale, 0 is no effect, 100 is complete control)",[15],20
same,"Plant response rating, Ducksalad (0 to 100 scale, 0 is no effect, 100 is complete control)",[16],25
same,"Plant response rating, Barnyardgrass (0 to 100 scale, 0 is no effect, 100 is complete control)",[17],40
C[C@@H](Nc1ncc(C(F)(F)F)c(N)n1)c1cc2cc(F)c(F)cc2o1 [Compounds 30],"Plant response rating, Barnyardgrass",[1]; 125 g ai/ha,0
same,"Plant response rating, Barnyardgrass",[1]; 500 g ai/ha,80
same,"Plant response rating, Kochia",kochia (Kochia scoparia) [2]; 125 g ai/ha,0
same,"Plant response rating, Kochia",kochia (Kochia scoparia) [2]; 500 g ai/ha,30
same,"Plant response rating, Ryegrass, Italian",[4]; 125 g ai/ha,0
same,"Plant response rating, Ryegrass, Italian",[4]; 500 g ai/ha,0
same,"Plant response rating, Foxtail, Giant",[5]; 125 g ai/ha,0
same,"Plant response rating, Foxtail, Giant",[5]; 500 g ai/ha,70
same,"Plant response rating, Pigweed",[6]; 125 g ai/ha,40
same,"Plant response rating, Pigweed",[6]; 500 g ai/ha,100
same,"Plant response rating, Barnyardgrass",[18]; 125 g ai/ha,0
same,"Plant response rating, Barnyardgrass",[18]; 500 g ai/ha,30
same,"Plant response rating, Kochia",kochia (Kochia scoparia) [7]; 125 g ai/ha,20
same,"Plant response rating, Kochia",kochia (Kochia scoparia) [7]; 500 g ai/ha,80
same,"Plant response rating, Ragweed",[8]; 125 g ai/ha,20
same,"Plant response rating, Ragweed",[8]; 500 g ai/ha,80
same,"Plant response rating, Ryegrass, Italian",[9]; 125 g ai/ha,0
same,"Plant response rating, Ryegrass, Italian",[9]; 500 g ai/ha,0
same,"Plant response rating, Foxtail, Giant",[10]; 125 g ai/ha,0
same,"Plant response rating, Foxtail, Giant",[10]; 500 g ai/ha,30
same,"Plant response rating, Pigweed",[11]; 125 g ai/ha,100
same,"Plant response rating, Pigweed",[11]; 500 g ai/ha,100
same,"Plant response rating, Wheat",[12]; 125 g ai/ha,0
same,"Plant response rating, Wheat",[12]; 500 g ai/ha,0
same,"Plant response rating, Corn",corn (Zea mays); 125 g ai/ha,10
same,"Plant response rating, Corn",corn (Zea mays); 500 g ai/ha,0
same,"Plant response rating, Blackgrass",[13]; 125 g ai/ha,0
same,"Plant response rating, Blackgrass",[13]; 500 g ai/ha,0
same,"Plant response rating, Galium",[14]; 125 g ai/ha,50
same,"Plant response rating, Galium",[14]; 500 g ai/ha,60
same,"Plant response rating, Rice (0 to 100 scale, 0 is no effect, 100 is complete control)",rice (Oryza sativa),0
same,"Plant response rating, Sedge, Umbrella (0 to 100 scale, 0 is no effect, 100 is complete control)",[15],80
same,"Plant response rating, Ducksalad (0 to 100 scale, 0 is no effect, 100 is complete control)",[16],0
same,"Plant response rating, Barnyardgrass (0 to 100 scale, 0 is no effect, 100 is complete control)",[17],0
